According to patent US20120315654A1, “COMPOSITIONS AND METHODS FOR DETECTING CARDIOTOXICITY” (DUKE UNIVERSITY, priority 2011, published 2012):

System: cell-surface CrT protein
Assay: Cell-surface CrT protein by biotin labeling, avidin isolation and Western blot (4B9)
Type: cell-based, human
Conditions: HL-1 cultures, 100 nmol/L DOX
Method: HL-1 cells expressing CrT protein were lysed in an ice-cold solution of 150 mmol/L NaCl; 1% Triton X-100; and 50 mmol/L Tris-HCl, pH 7.4, supplemented with protease (COMPLETE MINI protease inhibitors, ROCHE, Indianapolis, Ind.) and phosphatase inhibitors (5 mmol/L NaF; 1 mmol/L phenylmethylsulphonylfluoride; 2.5 mmol/L Na2P2O7; 50 mmol/L β-glycerol; and 1 mmol/L […], Sigma). Insoluble material was separated by centrifugation at 100,000×g for 30 min at 4° C. Solubilized protein (25 μg per lane) was mixed with Laemmli buffer containing 10% β-mercaptoethanol, separated by SDS-PAGE on a 7% gel for studies of the CrT, and then transferred to nitrocellulose membranes. […] The TATA box-binding protein band was used as a loading control and was detected using a mouse monoclonal antibody (ABCAM, Cambridge, Mass.). […] Protein abundance was quantitated by densitometry using the IMAGEJ application from NIH, and normalized to the signal obtained from CrT protein isolated from cells grown in normal culture media.
HL-1 cultures were grown in 75 cm^2 plates and transiently transfected as described for human CrT cDNA. […] Cell surface CrT protein fraction (biotinylated CrT) was then analyzed by Western blotting using an anti-CrT antibody as described above.

SMILES: COc1cccc2c1C(=O)c1c(O)c3c(c(O)c1C2=O)C[C@@](O)(C(=O)CO)C[C@@H]3O[C@H]1C[C@H](N)[C@H](O)[C@H](C)O1 [DOX, Doxorubicin]
- Amount of CrT at the cell surface: decreased
